Here are results for three compounds from patent US10683286B2, “Furazan-3-carboxylic acid derivatives and use thereof in treatment of cancer” (FREIE UNIVERSITAET BERLIN, priority 2016, dated 2020).

The IC50 is the concentration needed to halve the response being measured. Broadly, the Ki is a dissociation constant, usually derived from enzyme kinetics or from competition with a known ligand. Low readings indicate tighter binding, high ones weaker binding. As usually defined, the Kd is a measure of binding affinity in units of concentration. Read a high Kd as a looser complex.

A short description of one series: Solubility. The series is classed as physicochemical. To be noted: compared to the 5-aryl-substituted tetrazole.
Another series relates to STAT5. Briefly: STAT5 phosphorylation, Western blot in BaF3/FLT3-ITD cells. To be noted: for reduction of STAT5 phosphorylation / IC50: 6 h; for IC50: read-out: IC50 of STAT5 phosphorylation inhibition, BaF3/FLT3-ITD cells. In general terms: In western blotting, separated proteins are transferred to a membrane and probed.
The next series addresses T1, STAT5b-SH2 domain (Homo sapiens, UniProt P51692).
T1 sequence (P51692 136-703): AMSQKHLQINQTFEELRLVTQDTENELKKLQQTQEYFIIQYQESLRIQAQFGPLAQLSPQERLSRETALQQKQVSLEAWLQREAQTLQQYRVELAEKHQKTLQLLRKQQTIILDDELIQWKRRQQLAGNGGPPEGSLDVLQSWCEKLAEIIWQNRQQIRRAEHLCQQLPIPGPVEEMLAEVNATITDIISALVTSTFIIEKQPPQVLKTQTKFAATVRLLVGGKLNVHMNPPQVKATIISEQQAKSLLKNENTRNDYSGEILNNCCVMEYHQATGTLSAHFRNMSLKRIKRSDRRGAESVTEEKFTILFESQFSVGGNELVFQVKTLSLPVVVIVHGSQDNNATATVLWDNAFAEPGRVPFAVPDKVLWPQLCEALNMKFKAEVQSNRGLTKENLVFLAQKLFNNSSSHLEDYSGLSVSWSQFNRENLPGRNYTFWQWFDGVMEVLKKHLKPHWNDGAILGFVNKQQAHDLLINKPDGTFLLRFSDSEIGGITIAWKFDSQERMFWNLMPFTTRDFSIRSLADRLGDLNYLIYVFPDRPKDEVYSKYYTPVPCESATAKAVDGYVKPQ
As to the kind of experiment: Competitive fluorescence polarization (FP) assay, STAT5b-SH2 domain. In general terms: Fluorescence polarisation rises when a labelled molecule tumbles more slowly, as on binding a larger partner.

Series [1] concerns the target full length human STAT3 protein (Homo sapiens, UniProt P40763). As to the kind of experiment: FP specificity assay, STAT3. The class given is binding. As to conditions: concentrations up to 1 mM. From the text: Cell Lines and Culture Condition
Series [2] concerns the target T2, protein tyrosine phosphatase SHP2 (Homo sapiens, UniProt Q06124).
T2 sequence (Q06124 1-593): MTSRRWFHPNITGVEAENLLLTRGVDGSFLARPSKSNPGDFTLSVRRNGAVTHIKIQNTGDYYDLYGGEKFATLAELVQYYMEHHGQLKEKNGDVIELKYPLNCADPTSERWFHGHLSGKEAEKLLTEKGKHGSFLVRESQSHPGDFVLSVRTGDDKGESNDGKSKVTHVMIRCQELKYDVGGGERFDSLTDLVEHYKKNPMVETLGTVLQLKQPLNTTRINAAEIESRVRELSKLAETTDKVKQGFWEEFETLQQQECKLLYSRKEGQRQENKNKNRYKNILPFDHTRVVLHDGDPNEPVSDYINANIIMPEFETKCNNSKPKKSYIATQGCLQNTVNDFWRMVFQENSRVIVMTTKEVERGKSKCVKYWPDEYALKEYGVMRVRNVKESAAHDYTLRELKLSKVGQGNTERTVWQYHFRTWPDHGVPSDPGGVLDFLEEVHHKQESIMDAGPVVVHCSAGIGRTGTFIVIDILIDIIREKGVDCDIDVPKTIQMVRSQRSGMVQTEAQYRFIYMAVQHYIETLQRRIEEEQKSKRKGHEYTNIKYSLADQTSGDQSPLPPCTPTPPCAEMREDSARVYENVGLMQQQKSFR
As to the kind of experiment: SHP2 inhibition (specificity). The class given is biochemical. To be noted: concentrations up to 1 mM.

The test system of series [3] is phosphorylated STAT5 dimers. As to the kind of experiment: ELISA-based STAT5 transcription factor assay of (STAT5)2-DNA complexes. The class given is biochemical, murine. As to conditions: cell-free, nuclear extract incubated 1 h at room temperature. On the procedure: As an additional confirmation for the mode of action of the STAT5-binding fragments, we finally investigated their potential to interfere directly with the binding of phosphorylated STAT5 dimers to the target DNA sequences of the transcription factor. […] (FIGS. 6C, D) Nuclear extracts and cytoplasmic extracts were prepared from BaF3 FLT3-ITD cells using the Nuclear Extraction kit (Active Motif, Carlsbad, Calif., USA) according to the manufacturer's protocol. STAT5 activity was determined in nuclear protein extracts (20 μg) by the TransAM STATs family kits from Active Motif (Carlsbad, Calif.). All assays were performed following the manufactory instruction after the nuclear protein extraction.

Another series relates to STAT5 dimer. As to the kind of experiment: Gel shift assay (EMSA) of STAT5 DNA binding. To be noted: BaF3/FLT3-ITD nuclear extract. The class given is biochemical, murine. On the procedure: Nuclear extracts and cytoplasmic extracts were prepared from BaF3 FLT3-ITD cells using the Nuclear Extraction kit (Active Motif, Carlsbad, Calif., USA) according to the manufacturer's protocol.
A gel shift assay was conducted using a double-stranded, biotin-labeled oligonucleotide probe containing the consensus binding site for STAT5 (sense strand, 5′-[…]-3′), using the Gelshift Chemiluminescent EMSA kit (Active Motif) according to the manufacturer's protocol. Protein-DNA complexes were resolved on a nondenaturing polyacrylamide gel, transferred to a positively charged nylon membrane, and cross-linked to a membrane using the UV-light cross-linker. After blocking, the membrane was incubated with blocking buffer containing streptavidin conjugated to HRP. After washing, protein-DNA complexes were detected using a chemi-luminescent substrate (Active Motif).
(In general: Mobility shift assays separate free from complexed probe on a gel.)

The next series has as its target T3, STAT3 (Mus musculus, UniProt P42227).
T3 construct: endogenous in cells; context BaF3/FLT3-ITD
As to the kind of experiment: STAT3 phosphorylation and expression in cells. The class given is cell-based. As to conditions: selectivity in cells.

Series [4] deals with Pim1 kinase, cyclin D1 and Bcl-xl. As to the kind of experiment: Expression of transcriptional targets of STAT5, Western blot in BaF3/FLT3-ITD cells. The series is classed as cell-based, murine. As to conditions: BaF3/FLT-ITD cells, after 6 h. An excerpt:
(FIGS. 7A, B). Next, the functional effects of STAT5 inhibitors (6) and (15) on cellular transcription were investigated. For the purpose, the expression of three transcriptional targets of STAT5, namely Pim1 kinase, cyclin D1 and Bcl-xl, which play essential roles in cell cycle progression and survival, was monitored by Western Blotting (FIGS. 6A, B).

The subject of a further series is BaF3/FLT3-ITD cells. As to the kind of experiment: Cell proliferation assay (Alamar blue). The class given is cell-based, murine. As to conditions: 48 h, Alamar blue, FLT3-ITD cells. On the procedure: Having proven the functional inhibition of STAT5 as a transcription factor, the effect of STAT5 inhibitors on the proliferation of cancer cells carrying the common FLT3-ITD mutation was investigated. Cells were incubated for 48 h and cell proliferation was quantified by the Alamar blue assay (FIG. 5). […] For comparison, we have tested both compounds on non-STAT5-dependent cell lines and the cytotoxicity effect were negligible up to 500 μM. (FIG. S9).
(§1) The effect of compounds on cell lines was evaluated by In Vitro Toxicology Assay Kit, Resazurin based with indicator dye Alamar Blue (Sigma). Adherent and suspension cells were plated at 5×10^3 per well and 1×10^4 per well respectively in triplicate in 96-well plates and incubated in medium containing 10% FBS. For adherent cell, the complete medium was replaced after 24 hours and incubated with test medium containing vehicle control or serial concentration of compounds for 48 hours at 37° C. The remaining wells in the periphery of the microtiter well plate were added PBS and not used to avoid evaporation effects. Alamar Blue was then added, and all plates were incubated at 37° C., and a colorimetric change was measured according to the methods provided by the provided protocol.

The test system of series [5] is non-STAT5-dependent cell lines. As to the kind of experiment: Cytotoxicity on non-STAT5-dependent cell lines. As to conditions: up to 500 μM. The class given is cell-based. As to the method:
Carol Stocking (University Hospital Hamburg-Eppendorf). […] Cells were incubated at 37° C., 5% CO2 atmosphere.
as §1

Entries after “also recorded” stand apart in the source; their conditions may differ. Where two headings read alike, the source gives them in different places.

T3 sequence (P42227 whole entry): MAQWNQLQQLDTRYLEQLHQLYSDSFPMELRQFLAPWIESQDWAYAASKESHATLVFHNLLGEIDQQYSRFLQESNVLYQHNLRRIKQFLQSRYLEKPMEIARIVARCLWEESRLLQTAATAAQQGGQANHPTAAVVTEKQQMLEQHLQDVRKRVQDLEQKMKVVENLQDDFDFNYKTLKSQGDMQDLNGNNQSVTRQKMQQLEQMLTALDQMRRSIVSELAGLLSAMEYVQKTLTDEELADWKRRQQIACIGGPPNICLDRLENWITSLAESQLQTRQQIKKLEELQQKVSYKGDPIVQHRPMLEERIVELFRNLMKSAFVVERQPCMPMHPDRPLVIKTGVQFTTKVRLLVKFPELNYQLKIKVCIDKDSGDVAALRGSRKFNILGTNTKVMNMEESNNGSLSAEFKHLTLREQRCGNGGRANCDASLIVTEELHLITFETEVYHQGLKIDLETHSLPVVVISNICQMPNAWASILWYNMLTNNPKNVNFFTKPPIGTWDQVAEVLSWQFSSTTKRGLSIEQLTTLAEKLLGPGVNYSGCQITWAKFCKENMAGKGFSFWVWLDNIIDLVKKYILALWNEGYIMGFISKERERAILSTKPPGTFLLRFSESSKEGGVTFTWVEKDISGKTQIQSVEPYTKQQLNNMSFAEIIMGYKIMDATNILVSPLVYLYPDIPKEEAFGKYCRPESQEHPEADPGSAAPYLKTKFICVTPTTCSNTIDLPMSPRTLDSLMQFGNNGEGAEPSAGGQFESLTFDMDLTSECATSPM
full length human STAT3 protein, sequence (P40763 whole entry): as the sequence (P42227 whole entry) above, with D760E counted along it
Description for STAT5b-SH2 domain: The ChemBioNet fragment collection composed in accordance with the substructure composition of the World Drug Index (WDI) was screened both for enhancing and inhibiting fragments of the phosphopeptide-STAT5 interaction.
The clone for Stat5b expression was kindly provided by Thorsten Berg (MPI, Martinsried). Expression of that truncated version of Stat5b (aa 136-703) cloned into a modified pQE70, with N-terminal MBP-tag and C-terminal His-tag was conducted on autoinduction medium (overnight express/Novagen). Cells were grown to an optical density (O.D.) of 0.3 at 37° C., then the temperature was reduced to 20° C. for further 48 h of expression. […] The protein was purified by Ni-chelating chromatography followed by gel filtration (Superdex 200/10 mM HEPES pH 7.8, 100 mM NaCl, 1 mM EDTA, 1 mM DTT, 10% glycerol). A yield of 15 mg MBP-Stat5b-His per liter of culture was obtained and aliquots (200 μl of 3.2 mg/ml) were quick-frozen and stored at −80° C., ready for use.
17000 compounds from the (FMP) ChemBioNet library were tested in a competitive-based fluorescence polarization (FP) assay to investigate the ability of compounds to bind to STAT5b-SH2 domain by displacing respective fluorophore-labeled peptides (5-carboxyfluorescein-GY (PO3H2) LSLPPW-NH2). The peptide purity was >95% and the screening were performed at room temperature. The final concentration of buffer components used was 10 mM HEPES (pH 7.5), 1 mM EDTA, 0.1% Igepal CA-630, 50 mM NaCl, and 5% DMSO. The final concentration of protein used was at 65 nM which correspond to the dissociation constants (Kd) for the individual protein-peptide interactions in assay buffer. The protein was first added to the black 384 well plate (Corning 3676) followed by test compounds and fluorophore-labeled peptide. The plates were centrifuged, and measured using Safire^2 well plate reader (Tecan, Crailsheim, Germany) after 15 minutes incubation at room temperature. […] For the analysis of the data GraphPad Prism 5 was used. Ligand efficiencies (LE) were calculated using equation derived as followed. LE=−ΔG°/HA with (ΔG°) is the standard free energy of binding in KJ and HA is the number of non-hydrogen atoms.

In the case of `O=C(O)c1nonc1NCn1nnnc1Cc1ccccc1` [Compound 30, 4-((5-Benzyl-1H-tetrazol-1-yl)-methylamino)-furazan-3-carboxylic Acid], the solubility entry in “Solubility” is recorded as “strongly improved solubility”. In the series on STAT5 (50 μM, BaF3/FLT3-ITD), the “reduction of STAT5 phosphorylation” value is given as “clear reduction; also recorded: reduces STAT5 phosphorylation significantly”. Moreover, the IC50 with STAT5 amounted to 30.8 µM. On STAT5b-SH2 domain, this compound returned a Ki of 8.6 ± 2 µM and an LE of 1.31.
For the compound `O=C(O)c1nonc1NCn1cnnn1` [Compound 3, 4-((1H-Tetrazol-1-yl)-methylamino)-furazan-3-carboxylic Acid], in series [1], the “binding to the SH2 domain of STAT3” value is “no binding”. Further, the “inhibition of SHP2” value in series [2] is listed as “No inhibition”. For the same compound, the “inhibition of protein-dimer-DNA complex formation” value in series [3] is “more potent inhibitor than compounds (15) and (6)”. Besides, in the series with STAT5 dimer, the “STAT5 dimer DNA-binding activity” value is “inhibits”. For the same compound, on STAT5b-SH2 domain, the inhibitory constant (Ki) came to 1.4 ± 0.5 µM and the ligand efficiency is 2.23 kJ/mol per non-hydrogen atom. The same compound returned an LE at STAT5b-SH2 domain (Table 1, ligand efficiency) of 2.23 kJ/mol* atom#.
Turning to `COC(=O)c1nonc1NCn1cnnn1` [Compound 6, Methyl 4-((1H-tetrazol-1-yl)-methylamino)-furazan-3-carboxylate], at STAT3, the STAT3 phosphorylation result is listed as “negligible effects” and the “endogenous STAT3 expression” value is listed as “negligible effects”. Moreover, the “Pim1, cyclin D1 and Bcl-xL expression” value in series [4] is reported as “dose dependent reduction”. Also, in the series with BaF3/FLT3-ITD cells, the “inhibition of cell proliferation” value is recorded as “clear dose-dependent inhibition”. Besides, the cytotoxicity effect result in series [5] is given as “negligible”. For the same compound, in the series on STAT5 (25 μM, BaF3/FLT3-ITD), the “reduction of STAT5 phosphorylation” value is reported as “clear reduction”. Moreover, in the series with STAT5 (6 h treatment, BaF3/FLT3-ITD), the “tyrosine phosphorylation of STAT5, dose dependence” value is “decrease the tyrosine phosphorylation of STAT5 in a dose dependent manner”. In the series on STAT5 (BaF3/FLT3-ITD), the “overall expression of endogenous STAT5” value is recorded as “no effect”. Besides, the IC50 in the series with STAT5 worked out at 44.2 µM. At STAT5b-SH2 domain, this compound gave a dissociation constant (Kd) of 76 µM and a Ki of 37.4 ± 1.2 µM. Also, at STAT5b-SH2 domain (Table 1, ligand efficiency), the LE turned out to be 1.58 kJ/mol* atom#.
